In patent US11572590B2, “Methods for evaluating tumor cell spheroids using 3D microfluidic cell culture device” (Dana-Farber Cancer Institute, Inc., priority 2017, dated 2023):
Read-outs that look alike come from different tables or passages of the source.

Assays:
Test in all cases: SelectScreen Kinase Profiling, single point inhibition and IC50 for off-target kinases
Assay type in all cases: biochemical
off-target kinases [1] = biological target: off-target kinases (Homo sapiens, UniProt Q16288); settings: NTRK3 (TRKC), ZLYTE, ATP Km app
Sequence of off-target kinases (Homo sapiens, UniProt Q16288) (Q16288 32-839): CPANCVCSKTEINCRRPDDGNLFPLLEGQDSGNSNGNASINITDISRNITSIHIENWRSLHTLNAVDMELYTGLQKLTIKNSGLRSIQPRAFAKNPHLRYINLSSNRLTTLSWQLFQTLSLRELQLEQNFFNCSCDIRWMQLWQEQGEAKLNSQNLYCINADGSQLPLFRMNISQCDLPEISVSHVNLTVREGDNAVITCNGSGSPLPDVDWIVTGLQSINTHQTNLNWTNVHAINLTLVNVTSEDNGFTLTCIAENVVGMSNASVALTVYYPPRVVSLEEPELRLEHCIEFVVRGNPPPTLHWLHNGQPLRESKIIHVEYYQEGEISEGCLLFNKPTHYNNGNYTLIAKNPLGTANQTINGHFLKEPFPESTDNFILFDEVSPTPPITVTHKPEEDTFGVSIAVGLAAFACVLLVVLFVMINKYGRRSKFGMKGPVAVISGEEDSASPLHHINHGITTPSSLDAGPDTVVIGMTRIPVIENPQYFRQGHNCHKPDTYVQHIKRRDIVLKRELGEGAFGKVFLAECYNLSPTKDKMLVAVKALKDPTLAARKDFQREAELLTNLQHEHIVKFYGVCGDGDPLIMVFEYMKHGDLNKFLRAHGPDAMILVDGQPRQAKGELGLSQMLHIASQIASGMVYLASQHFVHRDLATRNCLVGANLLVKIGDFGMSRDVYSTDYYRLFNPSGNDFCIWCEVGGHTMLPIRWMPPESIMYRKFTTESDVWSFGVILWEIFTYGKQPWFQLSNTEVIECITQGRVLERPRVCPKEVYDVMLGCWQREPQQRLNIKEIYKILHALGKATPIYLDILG

off-target kinases [2] = biological target: T1, off-target kinases (Homo sapiens, UniProt Q13188); settings: STK3 (MST2), ZLYTE, ATP Km app
T1 sequence (Q13188 1-491): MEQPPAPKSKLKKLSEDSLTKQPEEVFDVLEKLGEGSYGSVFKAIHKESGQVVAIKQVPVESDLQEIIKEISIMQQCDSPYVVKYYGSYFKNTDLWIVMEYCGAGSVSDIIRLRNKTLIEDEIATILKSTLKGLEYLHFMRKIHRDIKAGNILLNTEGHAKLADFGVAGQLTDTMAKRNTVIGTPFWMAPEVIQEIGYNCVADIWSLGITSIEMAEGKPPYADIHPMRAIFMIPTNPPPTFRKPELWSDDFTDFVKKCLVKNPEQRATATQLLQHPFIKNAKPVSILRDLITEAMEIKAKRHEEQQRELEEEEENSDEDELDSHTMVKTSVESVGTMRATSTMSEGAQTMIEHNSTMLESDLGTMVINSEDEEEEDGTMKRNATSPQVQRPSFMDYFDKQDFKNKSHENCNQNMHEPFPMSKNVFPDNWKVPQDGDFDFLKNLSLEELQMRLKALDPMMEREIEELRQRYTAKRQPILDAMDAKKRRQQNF

off-target kinases [3] = biological target: off-target kinases (Homo sapiens, UniProt P49841); settings: GSK3B (GSK3 beta), ZLYTE, ATP Km app
Sequence of off-target kinases (Homo sapiens, UniProt P49841) (P49841 whole entry): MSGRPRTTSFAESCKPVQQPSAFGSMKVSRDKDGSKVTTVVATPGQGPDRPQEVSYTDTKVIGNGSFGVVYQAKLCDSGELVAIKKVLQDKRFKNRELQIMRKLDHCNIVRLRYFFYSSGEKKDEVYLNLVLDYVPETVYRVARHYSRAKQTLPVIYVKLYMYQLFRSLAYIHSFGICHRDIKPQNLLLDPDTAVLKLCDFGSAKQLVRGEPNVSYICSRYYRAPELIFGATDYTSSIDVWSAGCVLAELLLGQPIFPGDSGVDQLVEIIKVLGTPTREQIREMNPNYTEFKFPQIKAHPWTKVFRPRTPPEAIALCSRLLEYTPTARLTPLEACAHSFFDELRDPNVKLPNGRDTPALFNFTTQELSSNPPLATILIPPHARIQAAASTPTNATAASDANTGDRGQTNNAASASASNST

off-target kinases [4] = biological target: T2, off-target kinases (Homo sapiens, UniProt P52333); settings: JAK3, ATP Km app, ZLYTE
T2 sequence (P52333 1-1124): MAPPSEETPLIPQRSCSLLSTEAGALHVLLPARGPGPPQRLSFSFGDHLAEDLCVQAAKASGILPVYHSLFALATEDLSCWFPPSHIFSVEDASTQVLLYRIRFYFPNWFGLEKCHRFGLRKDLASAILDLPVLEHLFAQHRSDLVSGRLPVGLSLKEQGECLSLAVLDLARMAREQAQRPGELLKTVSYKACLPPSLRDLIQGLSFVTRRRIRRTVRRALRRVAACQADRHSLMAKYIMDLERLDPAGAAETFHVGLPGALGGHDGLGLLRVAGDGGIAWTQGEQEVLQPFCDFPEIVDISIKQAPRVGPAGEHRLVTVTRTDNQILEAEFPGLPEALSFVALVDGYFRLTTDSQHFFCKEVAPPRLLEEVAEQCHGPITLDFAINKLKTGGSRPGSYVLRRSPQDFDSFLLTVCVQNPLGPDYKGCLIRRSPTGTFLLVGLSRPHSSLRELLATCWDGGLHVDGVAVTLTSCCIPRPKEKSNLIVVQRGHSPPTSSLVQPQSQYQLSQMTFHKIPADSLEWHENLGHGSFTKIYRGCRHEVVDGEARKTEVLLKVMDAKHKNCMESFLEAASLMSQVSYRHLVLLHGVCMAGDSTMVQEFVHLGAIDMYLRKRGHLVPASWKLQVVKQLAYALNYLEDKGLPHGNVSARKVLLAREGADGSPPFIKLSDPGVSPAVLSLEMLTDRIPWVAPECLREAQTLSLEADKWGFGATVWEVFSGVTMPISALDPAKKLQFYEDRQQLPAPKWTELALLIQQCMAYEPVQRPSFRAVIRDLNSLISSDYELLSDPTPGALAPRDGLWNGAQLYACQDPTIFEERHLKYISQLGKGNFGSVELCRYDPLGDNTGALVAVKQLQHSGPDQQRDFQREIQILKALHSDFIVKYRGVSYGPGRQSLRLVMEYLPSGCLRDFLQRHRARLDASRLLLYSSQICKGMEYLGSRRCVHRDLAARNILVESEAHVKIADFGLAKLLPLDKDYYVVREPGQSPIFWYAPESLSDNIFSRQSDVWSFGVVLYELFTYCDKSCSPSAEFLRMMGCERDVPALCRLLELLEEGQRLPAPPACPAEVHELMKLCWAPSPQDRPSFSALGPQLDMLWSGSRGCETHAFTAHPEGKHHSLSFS

Structure (SMILES): N#Cc1cc(-c2ncnc(Nc3ccc(N4CCN(C5COC5)CC4)cc3)n2)ccc1OC1CCOCC1 [Compound 1, 5-(4-((4-(4-(oxetan-3-yl)piperazin-1-yl)phenyl)amino)-1,3,5-triazin-2-yl)-2-((tetrahydro-2H-pyran-4-yl)oxy)benzonitrile]
- inhibition (off-target kinases [1]; read-out: % Inhibition 1): 17%
- inhibition (off-target kinases [1]; read-out: % Inhibition 2): 19%
- inhibition (off-target kinases [1]; read-out: % Inhibition Avg): 18%
- inhibition (off-target kinases [2]; read-out: % Inhibition 1): 5%
- inhibition (off-target kinases [2]; read-out: % Inhibition 2): 6%
- inhibition (off-target kinases [2]; read-out: % Inhibition Avg): 5%
- inhibition (off-target kinases [3]; read-out: % Inhibition 1): 21%
- inhibition (off-target kinases [3]; read-out: % Inhibition 2): 21%
- inhibition (off-target kinases [3]; read-out: % Inhibition Avg): 21%
- inhibition (off-target kinases [4]; read-out: % Inhibition 1): 73%
- inhibition (off-target kinases [4]; read-out: % Inhibition 2): 73%
- inhibition (off-target kinases [4]; read-out: % Inhibition Avg): 73%
